Data published in ChEMBL document CHEMBL4725402, “Discovery of thiapyran-pyrimidine derivatives as potential EGFR inhibitors” (Bioorg Med Chem, 2020).
Activity calls are given as the source filed them. The calls are words filed in the database; no cut-off is given here.

Columns and labels:
[1] = system: L02; test: Cytotoxicity against human L02 cells assessed as reduction in cell viability measured after 72 hrs by MTT assay; format: cell-based; settings: L02, 72 h
[2] = Selectivity index, ratio of IC50 for human L02 cells to IC50 for human A549 cells assessed as reduction in cell viability measured after 72 hrs by MTT assay; format: toxicity; settings: L02 cells versus A549 cells, read-out: Ratio IC50
[3] = system: A549; test: Antiproliferation activity against human A549 cells assessed as reduction in cell viability measured after 72 hrs by MTT assay; format: functional, cell-based; settings: A549, 72 h
[4] = system: NCI-H1975; test: Antiproliferation activity against human NCI-H1975 cells harboring EGFR T790M/L858R mutation assessed as reduction in cell viability measured after 72 hrs by MTT assay; format: functional, cell-based; settings: NCI-H1975, 72 h
[5] = system: HeLa; test: Antiproliferation activity against human HeLa cells assessed as reduction in cell viability measured after 72 hrs by MTT assay; format: functional, cell-based
[6] = system: MCF7; test: Antiproliferation activity against human MCF7 cells assessed as reduction in cell viability measured after 72 hrs by MTT assay; format: functional, cell-based; settings: MCF7, 72 h
[7] = species on record: Homo sapiens; test: Inhibition of PI3K (unknown origin) at 1 uM relative to control
[8] = system: NCI-H1975; test: Induction of apoptosis in human H1975 cells assessed as late apoptotic cells at 1 to 10 uM incubated for 48 hrs Annexin V-FITC staining based flow cytometric analysis; format: functional, cell-based; settings: dose microM 1-10, time […]
[9] = system: NCI-H1975; test: Induction of apoptosis in human H1975 cells assessed as necrotic cells at 1 uM incubated for 48 hrs Annexin V-FITC staining based flow cytometric analysis (reference value: 0.08 %); format: functional
[10] = target: Epidermal growth factor receptor (Homo sapiens, UniProt P00533, L858R/T790M); test: Inhibition of EGFR T790M/L858R mutant (unknown origin) using FAM-labelled peptide as substrate incubated for 10 mins in presence of ATP by Kinase Glo luminescence assay
[11] = system: NCI-H1975; test: Induction of apoptosis in human H1975 cells assessed as live cells at 5 uM incubated for 48 hrs Annexin V-FITC staining based flow cytometric analysis (reference value: 96.09 %); format: functional
[12] = system: NCI-H1975; test: Induction of morphological changes in human H1975 cells assessed as chromatin shrinkage and apoptotic body formation at 0.01 to 0.10 uM incubated for 6 hrs by AO staining-based fluorescent microscopic analysis; format: functional, cell-based; settings: dose microM 0.01-0.10, time 6.0 hrs
[13] = system: A549; test: Cell cycle arrest in human A549 cells assessed as accumulation at G2/M phase at 5 uM incubated for 48 hrs […] staining based flow cytometric analysis (reference value: 2.67 %); format: functional
[14] = target: Vascular endothelial growth factor receptor 2 (Homo sapiens) (UniProt P35968); test: Inhibition of KDR (unknown origin) at 1 uM relative to control
[15] = system: NCI-H1975; test: Induction of apoptosis in human H1975 cells assessed as necrotic cells at 5 uM incubated for 48 hrs Annexin V-FITC staining based flow cytometric analysis (reference value: 0.08 %); format: functional
[16] = system: A549; test: Cell cycle arrest in human A549 cells assessed as accumulation at S phase at 5 uM incubated for 48 hrs […] staining based flow cytometric analysis (reference value: 22.64 %); format: functional
[17] = system: NCI-H1975; test: Induction of apoptosis in human H1975 cells assessed as late apoptotic cells at 10 uM incubated for 48 hrs Annexin V-FITC staining based flow cytometric analysis (reference value: 1.77 %); format: functional
[18] = system: NCI-H1975; test: Induction of apoptosis in human H1975 cells assessed as early apoptotic cells at 1 uM incubated for 48 hrs Annexin V-FITC staining based flow cytometric analysis (reference value: 2.06 %); format: functional
[19] = system: A549; test: Cell cycle arrest in human A549 cells assessed as accumulation at G2/M phase at 1 uM incubated for 48 hrs […] staining based flow cytometric analysis (reference value: 2.67 %); format: functional
[20] = system: A549; test: Cell cycle arrest in human A549 cells assessed as accumulation at G2/M phase at 10 uM incubated for 48 hrs […] staining based flow cytometric analysis (reference value: 2.67 %); format: functional
[21] = target: Epidermal growth factor receptor (Homo sapiens, UniProt P00533); test: Inhibition of wild type EGFR (unknown origin) using FAM-labelled peptide as substrate incubated for 10 mins in presence of ATP by Kinase Glo luminescence assay
[22] = system: NCI-H1975; test: Induction of morphological changes in human H1975 cells assessed as dense nuclei staining at 0.01 to 0.10 uM incubated for 6 hrs by Hoechst 33258 staining-based fluorescent microscopic analysis; format: functional, cell-based; settings: dose microM 0.01-0.10, time 6.0 hrs
[23] = system: NCI-H1975; test: Induction of apoptosis in human H1975 cells assessed as live cells at 1 uM incubated for 48 hrs Annexin V-FITC staining based flow cytometric analysis (reference value: 96.09 %); format: functional
[24] = system: NCI-H1975; test: Induction of morphological changes in human H1975 cells assessed as chromatin agglutination in nucleus at 0.01 to 0.10 uM incubated for 6 hrs by Hoechst33258 staining-based fluorescent microscopic analysis; format: functional, cell-based; settings: dose microM 0.01-0.10, time 6.0 hrs
[25] = target: Serine/threonine-protein kinase mTOR (Homo sapiens) (UniProt P42345); test: Inhibition of mTOR (unknown origin) at 1 uM relative to control
[26] = system: NCI-H1975; test: Induction of apoptosis in human H1975 cells assessed as necrotic cells at 10 uM incubated for 48 hrs Annexin V-FITC staining based flow cytometric analysis (reference value: 0.08 %); format: functional
[27] = system: A549; test: Cell cycle arrest in human A549 cells assessed as accumulation at S phase at 1 uM incubated for 48 hrs […] staining based flow cytometric analysis (reference value: 22.64 %); format: functional
[28] = system: A549; test: Cell cycle arrest in human A549 cells assessed as accumulation at G2/M phase at 1 to 10 uM incubated for 48 hrs […] staining based flow cytometric analysis; format: functional; settings: dose microM 1-10, time […]
[29] = system: A549; test: Cell cycle arrest in human A549 cells assessed as accumulation at S phase at 10 uM incubated for 48 hrs […] staining based flow cytometric analysis (reference value: 22.64 %); format: functional
[30] = system: NCI-H1975; test: Induction of apoptosis in human H1975 cells assessed as late apoptotic cells at 5 uM incubated for 48 hrs Annexin V-FITC staining based flow cytometric analysis (reference value: 1.77 %); format: functional
[31] = target: Epidermal growth factor receptor (Homo sapiens, UniProt P00533, T790M); test: Inhibition of EGFR T790M mutant (unknown origin) using FAM-labelled peptide as substrate incubated for 10 mins fin presence of ATP by Kinase Glo luminescence assay
[32] = system: A549; test: Cell cycle arrest in human A549 cells assessed as accumulation at G0/G1 phase at 10 uM incubated for 48 hrs […] staining based flow cytometric analysis (reference value: 74.69 %); format: functional
[33] = system: NCI-H1975; test: Induction of apoptosis in human H1975 cells assessed as live cells at 10 uM incubated for 48 hrs Annexin V-FITC staining based flow cytometric analysis (reference value: 96.09 %); format: functional
[34] = system: NCI-H1975; test: Induction of apoptosis in human H1975 cells assessed as late apoptotic cells at 1 uM incubated for 48 hrs Annexin V-FITC staining based flow cytometric analysis (reference value: 1.77 %); format: functional
[35] = system: NCI-H1975; test: Induction of apoptosis in human H1975 cells assessed as early apoptotic cells at 10 uM incubated for 48 hrs Annexin V-FITC staining based flow cytometric analysis (reference value: 2.06 %); format: functional
[36] = system: NCI-H1975; test: Induction of apoptosis in human H1975 cells assessed as early apoptotic cells at 5 uM incubated for 48 hrs Annexin V-FITC staining based flow cytometric analysis (reference value: 2.06 %); format: functional
[37] = system: A549; test: Cell cycle arrest in human A549 cells assessed as accumulation at G0/G1 phase at 1 uM incubated for 48 hrs […] staining based flow cytometric analysis (reference value: 74.69 %); format: functional
[38] = system: A549; test: Cell cycle arrest in human A549 cells assessed as accumulation at G0/G1 phase at 5 uM incubated for 48 hrs […] staining based flow cytometric analysis (reference value: 74.69 %); format: functional
[39] = target: Hepatocyte growth factor receptor (Homo sapiens) (UniProt P08581); test: Inhibition of C-MET (unknown origin) at 1 uM relative to control
Chain of Hepatocyte growth factor receptor (Homo sapiens) (P08581 whole entry): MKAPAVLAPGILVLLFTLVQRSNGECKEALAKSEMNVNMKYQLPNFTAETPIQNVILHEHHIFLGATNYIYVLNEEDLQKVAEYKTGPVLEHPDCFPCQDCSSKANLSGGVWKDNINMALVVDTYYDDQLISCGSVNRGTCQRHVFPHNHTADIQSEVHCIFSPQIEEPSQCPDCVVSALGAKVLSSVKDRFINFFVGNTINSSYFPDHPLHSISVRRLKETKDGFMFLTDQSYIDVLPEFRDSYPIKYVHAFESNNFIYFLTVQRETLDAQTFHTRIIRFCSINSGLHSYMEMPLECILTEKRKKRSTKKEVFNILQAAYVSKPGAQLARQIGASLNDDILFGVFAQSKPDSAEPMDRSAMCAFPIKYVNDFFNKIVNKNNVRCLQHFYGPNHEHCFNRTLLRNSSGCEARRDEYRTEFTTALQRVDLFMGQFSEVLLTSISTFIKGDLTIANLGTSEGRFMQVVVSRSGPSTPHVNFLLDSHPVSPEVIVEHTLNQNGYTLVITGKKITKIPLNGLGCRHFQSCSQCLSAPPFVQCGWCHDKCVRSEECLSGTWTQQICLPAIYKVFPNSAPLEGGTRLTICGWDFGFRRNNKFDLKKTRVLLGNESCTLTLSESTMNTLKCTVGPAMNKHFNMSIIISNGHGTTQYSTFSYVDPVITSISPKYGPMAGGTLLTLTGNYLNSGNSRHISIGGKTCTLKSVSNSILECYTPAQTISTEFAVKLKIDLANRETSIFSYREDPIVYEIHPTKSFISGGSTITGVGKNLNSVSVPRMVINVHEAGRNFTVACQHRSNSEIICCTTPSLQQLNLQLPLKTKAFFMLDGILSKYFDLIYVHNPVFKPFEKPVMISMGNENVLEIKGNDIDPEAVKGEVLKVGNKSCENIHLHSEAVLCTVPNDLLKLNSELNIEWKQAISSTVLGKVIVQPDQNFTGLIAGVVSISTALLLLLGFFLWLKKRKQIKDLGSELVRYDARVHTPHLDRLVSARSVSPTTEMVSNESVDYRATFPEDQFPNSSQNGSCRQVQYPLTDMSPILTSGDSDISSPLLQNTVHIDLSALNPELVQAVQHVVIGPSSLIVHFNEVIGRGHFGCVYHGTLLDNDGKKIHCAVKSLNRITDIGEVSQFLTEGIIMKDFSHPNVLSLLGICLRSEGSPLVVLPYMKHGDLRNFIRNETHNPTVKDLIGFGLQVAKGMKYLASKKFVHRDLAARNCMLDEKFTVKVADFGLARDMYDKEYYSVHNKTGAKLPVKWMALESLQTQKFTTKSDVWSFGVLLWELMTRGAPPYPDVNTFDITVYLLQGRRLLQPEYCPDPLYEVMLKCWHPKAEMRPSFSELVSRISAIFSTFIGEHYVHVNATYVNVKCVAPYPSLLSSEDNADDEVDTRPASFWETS

Chain of Epidermal growth factor receptor (Homo sapiens, UniProt P00533) (P00533 whole entry): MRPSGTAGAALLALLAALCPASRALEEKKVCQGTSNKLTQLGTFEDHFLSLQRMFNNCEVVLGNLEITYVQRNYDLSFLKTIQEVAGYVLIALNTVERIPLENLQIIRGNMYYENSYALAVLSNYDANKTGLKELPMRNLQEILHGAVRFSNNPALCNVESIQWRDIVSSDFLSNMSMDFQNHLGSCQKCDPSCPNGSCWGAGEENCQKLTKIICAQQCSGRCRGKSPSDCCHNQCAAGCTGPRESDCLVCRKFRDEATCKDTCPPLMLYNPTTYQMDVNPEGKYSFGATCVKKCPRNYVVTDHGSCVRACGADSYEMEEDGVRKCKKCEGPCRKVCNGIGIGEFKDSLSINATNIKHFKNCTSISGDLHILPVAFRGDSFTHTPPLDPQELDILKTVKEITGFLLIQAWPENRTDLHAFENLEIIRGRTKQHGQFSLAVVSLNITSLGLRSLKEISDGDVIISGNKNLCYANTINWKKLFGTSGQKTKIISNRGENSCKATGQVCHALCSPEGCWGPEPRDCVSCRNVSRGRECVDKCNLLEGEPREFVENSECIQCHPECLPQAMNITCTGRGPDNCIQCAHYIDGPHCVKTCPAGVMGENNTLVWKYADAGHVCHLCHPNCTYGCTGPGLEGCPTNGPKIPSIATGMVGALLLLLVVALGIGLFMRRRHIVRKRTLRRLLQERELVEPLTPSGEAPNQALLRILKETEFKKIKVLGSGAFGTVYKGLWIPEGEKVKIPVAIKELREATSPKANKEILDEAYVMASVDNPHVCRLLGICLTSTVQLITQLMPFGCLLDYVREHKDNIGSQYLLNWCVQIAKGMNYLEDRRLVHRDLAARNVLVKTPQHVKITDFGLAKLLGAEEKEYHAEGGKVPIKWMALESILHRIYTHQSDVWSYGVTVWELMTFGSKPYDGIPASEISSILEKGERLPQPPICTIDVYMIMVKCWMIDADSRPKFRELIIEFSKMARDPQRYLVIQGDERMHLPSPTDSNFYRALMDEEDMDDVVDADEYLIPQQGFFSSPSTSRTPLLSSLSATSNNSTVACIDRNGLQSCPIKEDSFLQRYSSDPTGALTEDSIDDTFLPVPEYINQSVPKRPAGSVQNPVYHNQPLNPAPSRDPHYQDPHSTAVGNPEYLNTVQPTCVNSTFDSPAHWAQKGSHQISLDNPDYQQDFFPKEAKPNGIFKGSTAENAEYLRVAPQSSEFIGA
Chain of Epidermal growth factor receptor (Homo sapiens, UniProt P00533, T790M) (P00533 25-1210 T790M limits assumed): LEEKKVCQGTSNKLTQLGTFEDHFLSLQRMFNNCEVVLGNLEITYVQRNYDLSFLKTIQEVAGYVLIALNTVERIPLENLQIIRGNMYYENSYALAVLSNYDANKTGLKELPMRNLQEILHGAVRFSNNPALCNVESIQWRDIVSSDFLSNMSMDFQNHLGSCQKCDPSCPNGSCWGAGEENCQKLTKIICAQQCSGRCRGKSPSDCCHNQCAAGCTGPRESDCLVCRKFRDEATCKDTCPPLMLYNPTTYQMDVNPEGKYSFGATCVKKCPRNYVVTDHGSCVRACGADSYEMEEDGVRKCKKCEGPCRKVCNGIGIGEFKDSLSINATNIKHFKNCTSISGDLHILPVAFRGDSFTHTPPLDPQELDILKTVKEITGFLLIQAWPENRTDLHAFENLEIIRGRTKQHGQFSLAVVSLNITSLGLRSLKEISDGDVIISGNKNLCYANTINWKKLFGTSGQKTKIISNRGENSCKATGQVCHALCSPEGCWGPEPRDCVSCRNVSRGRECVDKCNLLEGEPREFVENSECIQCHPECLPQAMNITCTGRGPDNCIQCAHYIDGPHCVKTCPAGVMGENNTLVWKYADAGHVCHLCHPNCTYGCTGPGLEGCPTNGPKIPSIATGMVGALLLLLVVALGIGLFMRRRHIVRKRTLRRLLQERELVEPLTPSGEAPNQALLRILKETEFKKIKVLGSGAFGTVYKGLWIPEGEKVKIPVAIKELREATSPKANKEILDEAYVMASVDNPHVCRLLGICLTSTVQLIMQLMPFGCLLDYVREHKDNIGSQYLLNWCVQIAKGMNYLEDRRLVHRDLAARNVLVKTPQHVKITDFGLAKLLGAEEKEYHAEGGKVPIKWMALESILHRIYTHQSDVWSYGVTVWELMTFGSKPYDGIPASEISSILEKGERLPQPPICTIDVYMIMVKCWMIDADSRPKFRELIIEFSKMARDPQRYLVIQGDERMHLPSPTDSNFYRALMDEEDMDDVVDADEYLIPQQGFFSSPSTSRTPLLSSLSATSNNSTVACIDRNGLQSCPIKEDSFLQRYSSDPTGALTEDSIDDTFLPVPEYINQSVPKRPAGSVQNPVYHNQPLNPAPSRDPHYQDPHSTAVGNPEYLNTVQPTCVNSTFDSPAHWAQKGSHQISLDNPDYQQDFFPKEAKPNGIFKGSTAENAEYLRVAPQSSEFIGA
Chain of Epidermal growth factor receptor (Homo sapiens, UniProt P00533, L858R/T790M) (P00533 25-1210 T790M/L858R limits assumed): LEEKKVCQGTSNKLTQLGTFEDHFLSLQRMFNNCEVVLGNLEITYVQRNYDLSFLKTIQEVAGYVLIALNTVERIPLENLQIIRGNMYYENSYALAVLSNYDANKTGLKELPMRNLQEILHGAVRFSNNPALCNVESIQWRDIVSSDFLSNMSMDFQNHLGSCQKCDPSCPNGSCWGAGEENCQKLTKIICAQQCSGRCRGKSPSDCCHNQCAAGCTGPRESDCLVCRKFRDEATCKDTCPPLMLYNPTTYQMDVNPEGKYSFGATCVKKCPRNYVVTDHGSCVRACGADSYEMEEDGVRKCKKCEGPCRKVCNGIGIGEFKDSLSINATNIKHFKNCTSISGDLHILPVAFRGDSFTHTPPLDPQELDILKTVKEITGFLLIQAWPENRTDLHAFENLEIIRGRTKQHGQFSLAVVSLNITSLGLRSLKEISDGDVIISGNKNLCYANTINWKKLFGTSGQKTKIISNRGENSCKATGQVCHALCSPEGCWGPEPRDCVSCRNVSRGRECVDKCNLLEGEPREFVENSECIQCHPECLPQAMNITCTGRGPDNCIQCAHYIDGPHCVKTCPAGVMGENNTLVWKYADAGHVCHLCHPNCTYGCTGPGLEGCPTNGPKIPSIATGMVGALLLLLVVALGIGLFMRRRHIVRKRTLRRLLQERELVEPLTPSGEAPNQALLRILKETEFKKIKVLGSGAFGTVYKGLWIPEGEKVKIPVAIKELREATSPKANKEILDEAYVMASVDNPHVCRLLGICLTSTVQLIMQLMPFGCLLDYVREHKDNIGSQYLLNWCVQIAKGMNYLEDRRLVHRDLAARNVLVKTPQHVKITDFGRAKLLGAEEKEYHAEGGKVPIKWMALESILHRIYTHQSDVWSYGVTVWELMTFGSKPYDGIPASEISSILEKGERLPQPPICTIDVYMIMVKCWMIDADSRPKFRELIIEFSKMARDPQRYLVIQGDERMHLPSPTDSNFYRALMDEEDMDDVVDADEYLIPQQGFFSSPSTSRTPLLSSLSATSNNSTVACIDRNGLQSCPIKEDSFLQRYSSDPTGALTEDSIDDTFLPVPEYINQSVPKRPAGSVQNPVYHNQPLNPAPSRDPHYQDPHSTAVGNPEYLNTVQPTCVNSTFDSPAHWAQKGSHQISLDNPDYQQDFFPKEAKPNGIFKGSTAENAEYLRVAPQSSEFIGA

## CCC/C=C/C(=O)Nc1cccc(Oc2nc(Nc3cccc(OC)c3)nc3c2CSCC3)c1
[1]
  IC50: > 50 µM
[2]
  selectivity ratio at 72 h: > 4.23
[3]
  IC50: 11.8 µM
[4]
  IC50: 11.9 µM
[5]
  IC50: 33.8 µM
[6]
  IC50: 32 µM

## C/C=C/C(=O)Nc1cccc(Oc2nc(Nc3cccc(C#N)c3)nc3c2CSCC3)c1
[1]
  IC50: > 50 µM
[2]
  selectivity ratio at 72 h: > 2.91
[3]
  IC50: 17.2 µM
[4]
  IC50: 28.1 µM
[5]
  IC50: 12.8 µM
[6]
  IC50: 21.4 µM

## C=CC(=O)Nc1cccc(Oc2nc(Nc3ccc(OC)cc3)nc3c2CSCC3)c1
[7]
  inhibition: 48.1%
[8]
  Activity: Dose-dependent effect
[9]
  Activity: 0.85%
[1]
  IC50: > 50 µM
[10]
  IC50: 0.132 µM
[11]
  Activity: 81.2%
[12]
  Activity: Active
[13]
  Activity: 10.69%
[14]
  inhibition: 3.9%
[15]
  Activity: 0.6%
[16]
  Activity: 14.44%
[17]
  Activity: 15.46%
[18]
  Activity: 3.76%
[19]
  Activity: 8.62%
[2]
  selectivity ratio at 72 h: > 11.8
[20]
  Activity: 23.23%
[21]
  IC50: > 1 µM
[22]
  Activity: Active
[23]
  Activity: 87.16%
[24]
  Activity: Active
[25]
  inhibition: -1.2%
[26]
  Activity: 0.58%
[27]
  Activity: 20.22%
[28]
  Activity: Dose-dependent effect
[3]
  IC50: 4.22 µM
[29]
  Activity: 14.2%
[4]
  IC50: 2.19 µM
[30]
  Activity: 10.7%
[31]
  IC50: 0.542 µM
[32]
  Activity: 62.57%
[33]
  Activity: 78.76%
[34]
  Activity: 8.23%
[5]
  IC50: 20.9 µM
[35]
  Activity: 5.2%
[36]
  Activity: 7.5%
[6]
  IC50: 11.7 µM
[37]
  Activity: 71.16%
[38]
  Activity: 74.87%
[39]
  inhibition: 0.5%

## C/C=C/C(=O)Nc1cccc(Oc2nc(Nc3cccc(OC)c3)nc3c2CSCC3)c1
[1]
  IC50: > 50 µM
[2]
  selectivity ratio at 72 h: > 2.37
[3]
  IC50: 21.1 µM
[4]
  IC50: 12.5 µM
[5]
  IC50: 13.8 µM
[6]
  IC50: 23.4 µM
